According to patent US8912121B2, “Herbicidal compositions comprising 4-amino-3-chloro-5-fluoro-6-(4-chloro-2-fluoro-3-methoxyphenyl)pyridine-2-carboxylic acid or a derivative thereof and certain PS II inhibitors” (Dow Agrosciences LLC, priority 2012, dated 2014):

How the values were obtained:
Assay in all cases: Pre-emergence soil-applied mixtures, greenhouse
[1] = system: ECHCO (Echinochloa colonum, junglerice); assay type: in vivo, Echinochloa colonum (L.) Link; conditions: Diuron 280 g ai/ha
Description: (§1) Seeds or nutlets of the desired test plant species were planted in a soil matrix prepared by mixing a loam soil (32 percent silt, 23 percent clay, and 45 percent sand, with a pH of about 6.5 and an organic matter content of about 1.9 percent) and calcareous grit in an 80 to 20 ratio. The soil matrix was contained in plastic pots with a volume of 1 quart and a surface area of 83.6 square centimeters (cm^2).
(§2) Treatments consisted of the benzyl ester of 4-amino-3-chloro-5-fluoro-6-(4-chloro-2-fluoro-3-methoxy-phenyl)pyridine-2-carboxylic acid (compound A) formulated as an SC (suspension concentrate) and various herbicidal components alone and in combination. Forms of compound A were applied on an acid equivalent basis.
(§3) Other herbicidal components were applied on an acid equivalent or active ingredient basis and included the PSII-inhibiting herbicides, atrazine formulated as Atrazine® 90WDG, metribuzin formulated as Metribuzin 75DF, simazine formulated as Princep Caliber 90, tebuthiuron formulated as Spike 80DF, cyanazine (technical grade material), hexazinone (technical grade material), linuron (technical grade material), terbuthylazine (technical grade material), and diuron formulated as Diuron 4L.
(§4) Treatment requirements were calculated based upon the rates being tested, the concentration of active ingredient or acid equivalent in the formulation, and a 12 mL application volume at a rate of 187 L/ha.
(§5) For treatments comprised of formulated compounds, measured amounts of compounds were placed individually in 25 mL glass vials and diluted in a volume of 1.25% (v/v) Agri-Dex® crop oil concentrate (COC) to obtain 12× stock solutions. […]
(§6) For treatments comprised of formulated and technical compounds, weighed amounts of the technical materials can be placed individually in 25 mL glass vials and dissolved in a volume of 97:3 (v/v) acetone/DMSO to obtain 12× stock solutions, and measured amounts of the formulated compounds can be placed individually in 25 mL glass vials and diluted in a volume of 1.5% (v/v) COC or water to obtain 12× stock solutions. […]

[2] = system: BRAPP (Brachiaria platyphylla, broadleaf signalgrass); assay type: in vivo, Brachiaria platyphylla (Groseb.) Nash; conditions: 28 DAA
Description: as §1, §2, §3, §4
(§7) For treatments comprised of formulated compounds, measured amounts of compounds were placed individually in 25 mL glass vials and diluted in a volume of 1.25% (v/v) Agri-Dex® crop oil concentrate (COC) to obtain 12× stock solutions. […] Application solutions were prepared by adding an appropriate amount of each stock solution (e.g., 1 mL) and diluted to the appropriate final concentrations with the addition of 10 mL of an aqueous mixture of 1.25% (v/v) COC so that the final spray solutions contained 1.25% (v/v) COC.
(§8) For treatments comprised of technical compounds, weighed amounts can be placed individually in 25 mL glass vials and dissolved in a volume of 97:3 (v/v) acetone/DMSO to obtain 12× stock solutions. […] Application solutions can be prepared by adding an appropriate amount of each stock solution (e.g., 1 mL) and diluted to the appropriate final concentrations with the addition of 10 mL of an aqueous mixture of 1.5% (v/v) COC so that the final spray solutions contain 1.25% (v/v) COC. When technical materials are used, the concentrated stock solutions can be added to the spray solutions so that the final acetone and DMSO concentrations of the application solutions are 16.2% and 0.5%, respectively.
(§9) For treatments comprised of formulated and technical compounds, weighed amounts of the technical materials can be placed individually in 25 mL glass vials and dissolved in a volume of 97:3 (v/v) acetone/DMSO to obtain 12× stock solutions, and measured amounts of the formulated compounds can be placed individually in 25 mL glass vials and diluted in a volume of 1.5% (v/v) COC or water to obtain 12× stock solutions. […] Application solutions can be prepared by adding an appropriate amount of each stock solution (e.g., 1 mL) and diluted to the appropriate final concentrations with the addition of an appropriate amount of an aqueous mixture of 1.5% (v/v) COC so that the final spray solutions contain 1.25% (v/v) COC. As required, additional water and/or 97:3 (v/v) acetone/DMSO can be added to individual application solutions so that the final acetone and DMSO concentrations of the application solutions being compared are 8.1% and 0.25%, respectively.
(§10) All stock solutions and applications solutions were visually inspected for compound compatibility prior to application. Spray solutions were applied to the soil with an overhead Mandel track sprayer equipped with a 8002E nozzles calibrated to deliver 187 L/ha over an application area of 0.503 m^2 at a spray height of 18 inches (46 cm) above average pot height. […]

[3] = system: SETFA (Setaria faberi, giant foxtail); assay type: in vivo, Setaria faberi Herrm.; conditions: Diuron 280 g ai/ha; 29 DAA
Description: as §1, §2, §3, §4, §7, §8, §9, §10

[4] = system: ABUTH (Abutilon theophrasti, velvetleaf); assay type: in vivo, Abutilon theophrasti Medik.
Description: as §1, §2, §3, §4, §7, §8
as §9, with “As required, additional water and/or 97:3 (v/v) acetone/DMSO can be added to individual application solutions so that the final acetone and DMSO concentrations of the application solutions being compared are 8.1% and 0.25%, respectively.” left out

[5] = system: SETVI (Setaria viridis, green foxtail); assay type: in vivo, Setaria viridis (L.) Beauv.; conditions: Diuron 280 g ai/ha
Description: as §1, §2, §3, §4, §5, §6

[6] = system: ECHCG (Echinochloa crus-galli, barnyardgrass); assay type: in vivo, Echinochloa crus-galli (L.) P. Beauv.
Description: as §1, §2, §3, §4, §7
For treatments comprised of technical compounds, weighed amounts can be placed individually in 25 mL glass vials and dissolved in a volume of 97:3 (v/v) acetone/DMSO to obtain 12× stock solutions. […]
as §6

SMILES: CN(C)C(=O)Nc1ccc(Cl)c(Cl)c1 [Diuron, N′-(3,4-dichlorophenyl)-N,N-dimethylurea, reference compound]
- Visual Weed Control (%)-29 DAA ECHCO Obs [1]: 15%
- Visual Weed Control (%)-28 DAA BRAPP Obs ([2]; Diuron 280 g ai/ha): 0%
- Visual Weed Control (%)-28 DAA BRAPP Obs ([2]; Diuron 560 g ai/ha): 35%
- Visual Weed Control (%)-29 DAA SETFA Obs [3]: 5%
- Visual Weed Control (%)-29 DAA ABUTH Obs ([4]; Diuron 280 g ai/ha): 30%
- Visual Weed Control (%)-29 DAA ABUTH Obs ([4]; Diuron 560 g ai/ha): 70%
- Visual Weed Control (%)-29 DAA ABUTH Obs ([4]; Diuron 1120 g ai/ha): 90%
- Visual Weed Control (%)-29 DAA SETVI Obs [5]: 0%
- Visual Weed Control (%)-28 DAA ECHCG Obs ([6]; Diuron 280 g ai/ha): 25%
- Visual Weed Control (%)-28 DAA ECHCG Obs ([6]; Diuron 560 g ai/ha): 65%
